Laboratory results: paper PMC5365654, “Cyclic Boronates Inhibit All Classes of β-Lactamases” (Antimicrobial Agents and Chemotherapy, 2017)
Where two headings read alike, the source gives them in different places.

Key:
Format in all cases: cell-based
K. pneumoniae KP58 = assay: Broth microtiter dilution MIC, KP58; conditions: Klebsiella pneumoniae, SHV-11 (A), VIM-4 (B), read-out: MIC (mg/liter) for β-lactam
Procedure: (§1) The in vitro activity of cyclic boronate 2 was assessed using nine clinical isolates carrying multiple β-lactamases (Table 3). The isolates selected included Enterobacteriaceae (E. coli ST 131, Klebsiella pneumoniae ST 258, and Providencia stuartii) producing class A ESBLs (CTX-M-15, CTX-M-27, SHV-5, and VEB-1), serine carbapenemase (KPC-2) and metallo-carbapenemases (VIM-1 and VIM-2), plasmid-mediated AmpC (CMY-2), and/or carbapenem-hydrolyzing OXA-48-like oxacillinases (OXA-181 and OXA-232) in various combinations. The activity against carbapenemase-producing strains of Pseudomonas aeruginosa (VIM-2) and Acinetobacter baumannii (OXA-23) was also investigated. All isolates have previously undergone extensive phenotypic and genotypic characterization ([60]).
(§2) MICs were determined using commercial Sensititre GN4F panels (Thermo Scientific, UK; lot B55051) and Mueller-Hinton II cation-adjusted broth (Oxoid, UK), with and without the addition of cyclic boronate 2 at a fixed concentration of 10 μg/ml. Plates were incubated at 37°C for 18 h and MICs read by eye following the addition of alamarBlue reagent (Trek Diagnostics).

K. pneumoniae (KP15) = tested on: K. pneumoniae (KP15)
Procedure: (§3) Combination discs (Oxoid) were prepared with a fixed ratio of 2:1 between the β-lactam (μg) and cyclic boronate 2. Zones of inhibition around combined and unsupplemented discs were compared following overnight incubation on MH II plates.

K. pneumoniae (KP58) = tested on: K. pneumoniae (KP58)
Procedure: as §3

K. pneumoniae (KP41) = tested on: K. pneumoniae (KP41)
Procedure: as §3

A. baumannii AB14 = assay: Broth microtiter dilution MIC, AB14; conditions: Acinetobacter baumannii, OXA-23 (D), OXA-51 (D), read-out: MIC (mg/liter) for β-lactam
Procedure: as §1, §2

E. coli EC114, ST 131 = assay: Broth microtiter dilution MIC, EC114; conditions: Escherichia coli, TEM-1 (A), CTX-M-15 (A), OXA-1 (D), read-out: MIC (mg/liter) for β-lactam
Procedure: as §1, §2

K. pneumoniae KP41 = assay: Broth microtiter dilution MIC, KP41; conditions: Klebsiella pneumoniae, TEM-1, SHV-1, SHV-5, SHV-11, CTX-M-15 (A), OXA-232 (D), read-out: MIC (mg/liter) for β-lactam
Procedure: as §1, §2

K. pneumoniae KP15 = assay: Broth microtiter dilution MIC, KP15; conditions: Klebsiella pneumoniae, TEM-1 (A), SHV-11 (A), KPC-2 (A), read-out: MIC (mg/liter) for β-lactam
Procedure: as §1, §2

E. coli EC113, ST 131 = assay: Broth microtiter dilution MIC, EC113; conditions: Escherichia coli, CTX-M-27 (A), read-out: MIC (mg/liter) for β-lactam
Procedure: as §1, §2

E. coli EC107, ST 131 = assay: Broth microtiter dilution MIC, EC107; conditions: Escherichia coli, CTX-M-15 (A), OXA-1 (D), read-out: MIC (mg/liter) for β-lactam
Procedure: as §1, §2

E. coli EC86 = assay: Broth microtiter dilution MIC, EC86; conditions: E. coli EC86, CTX-M-15 (A), CMY-4 (C), OXA-181 (D)
Procedure: as §1, §2

[1] = tested on: P. aeruginosa PA12, ST 111; assay: Broth microtiter dilution MIC, PA12; conditions: Pseudomonas aeruginosa, VIM-2 (B), read-out: MIC (mg/liter) for β-lactam
Procedure: as §1, §2

P. stuartii PS71 = assay: Broth microtiter dilution MIC, PS71; conditions: Providencia stuartii, TEM-1 (A), SHV-5 (A), VEB-1 (A), VIM-1 (B), read-out: MIC (mg/liter) for β-lactam
Procedure: as §1, §2

[2] = with cyclic boronate 2 (10 mg/liter) supplementation
[3] = without cyclic boronate 2 supplementation

## CCN1CCN(C(=O)N[C@@H](C(=O)N[C@@H]2C(=O)N3[C@@H]2SC(C)(C)[C@@H]3C(=O)O)c2ccccc2)C(=O)C1=O [PIP, piperacillin]
K. pneumoniae KP58; [2]
  MIC: > 64 mg/L
K. pneumoniae KP58; [3]
  MIC: > 64 mg/L
K. pneumoniae (KP15)
  Synergy When Combined with (2): Fixed 2:1 µg Ratio: Y
K. pneumoniae (KP58)
  Synergy When Combined with (2): Fixed 2:1 µg Ratio: Y
K. pneumoniae (KP41)
  Synergy When Combined with (2): Fixed 2:1 µg Ratio: N
A. baumannii AB14; [2]
  MIC: > 64 mg/L
A. baumannii AB14; [3]
  MIC: > 64 mg/L
E. coli EC114, ST 131; [2]
  MIC: > 64 mg/L
E. coli EC114, ST 131; [3]
  MIC: > 64 mg/L
K. pneumoniae KP41; [2]
  MIC: > 64 mg/L
K. pneumoniae KP41; [3]
  MIC: > 64 mg/L
K. pneumoniae KP15; [2]
  MIC: > 64 mg/L
K. pneumoniae KP15; [3]
  MIC: > 64 mg/L
E. coli EC113, ST 131; [2]
  MIC: ≤ 16 mg/L
E. coli EC113, ST 131; [3]
  MIC: > 64 mg/L
E. coli EC107, ST 131; [2]
  MIC: > 64 mg/L
E. coli EC107, ST 131; [3]
  MIC: > 64 mg/L
E. coli EC86; [3]
  MIC (mg/liter) for β-lactam: >64 mg/L
E. coli EC86; Escherichia coli, with cyclic boronate 2 (10 mg/liter) supplementation, read-out: MIC (mg/liter) for β-lactam
  MIC: > 64 mg/L
[1]; [2]
  MIC: 64 mg/L
[1]; [3]
  MIC: > 64 mg/L
P. stuartii PS71; [2]
  MIC: > 64 mg/L
P. stuartii PS71; [3]
  MIC: > 64 mg/L
